Results as given in patent US7671054B1, “Reverse-turn mimetics and method relating thereto” (Choongwae Pharma Corporation, priority 2001, dated 2010).
Converted amounts (≈) assume the structure as drawn. “Also recorded” adds a separate entry of the source.

What was measured:
CACO-2 = test: Sulforhodamine B (SRB) assay; assay type: cell-based; conditions: Homo sapiens; CACO-2, Colon; 48 hours; read-out: GI50 (SRB in vitro cytotoxicity)
Method: (§1) Growth inhibitory effect of Compound A on the cells listed below was measured by the sulforhodamine B assay. SW480 cells in 100 μl media were plated in each well of 96-well plate and allowed to attach for 24 hours. Compound A was added to the wells to produce the desired final concentrations, and the plates were incubated at 37° C. for 48 hours. The cells were then fixed by gentle addition of 100 μl of cold (4° C.) 10% trichloroacetic acid to each well, followed by incubation at 4° C. for 1 hour. Plates were washed with deionized water five times and allowed to air dry. The cells were then stained by addition of 100 μl SRB solution (0.4% SRB(w/v) in 1% acetic acid (v/v)) to wells for 15 min. After staining, the plates were quickly washed five times with 1% acetic acid to remove any unbound dye, and allowed to air dry. Bound dye was solubilized with 10 mmol/L Tris base (pH 10.5) prior to reading the plates. The optical density (OD) was read on a plate reader at a wavelength of 515 nm with Molecular Device. Inhibition of growth was expressed as relative viability (% of control) and GI50 was calculated from concentration-response curves after log/probit transformation.

LOX-IMVI = test: Sulforhodamine B (SRB) assay; assay type: cell-based; conditions: Homo sapiens, Melanoma, 48 hours, read-out: GI50 (SRB in vitro cytotoxicity)
Method: as §1

MCF7 = test: Sulforhodamine B (SRB) assay; assay type: cell-based; conditions: Homo sapiens; MCF7, Breast; 48 hours; read-out: GI50 (SRB in vitro cytotoxicity)
Method: as §1

PC3 = test: Sulforhodamine B (SRB) assay; assay type: cell-based; conditions: Homo sapiens, PC-3; PC3, Prostate; 48 hours; read-out: GI50 (SRB in vitro cytotoxicity)
Method: as §1

SK-MEL-5 = test: Sulforhodamine B (SRB) assay; assay type: cell-based; conditions: Homo sapiens; SK-MEL-5, Melanoma; 48 hours; read-out: GI50 (SRB in vitro cytotoxicity)
Method: as §1

SW620 = test: Sulforhodamine B (SRB) assay; assay type: cell-based; conditions: Homo sapiens, SW-620; SW620, Colon; 48 hours; read-out: GI50 (SRB in vitro cytotoxicity)
Method: as §1

HCT116 cells = test: Flow cytometric analysis (FACS) of cell cycle; assay type: cell-based; conditions: 25 μM, 24 hours
Method: (§2) For FACS analysis, approx. 5×10^6 cells from Compound D-treated or vehicle-treated were fixed with 70% chilled ethanol and stored at −20° C. for at least 30 minutes. The cells were washed once with 1×PBS and incubated with propidium iodine (PI) solution (85 μg/ml propidium iodine, 0.1% Nonidet P-40, 10 mg/ml RNAse) for 30 minutes at room temperature. 10,000 stained cells for each sample were acquired using Beckman Coulter EPICS XL-MCL Flow Cytometry and the percentage of cells in different phase of the cell cycle was determined by Expo32 ADC software (Coulter Corporation, Miami, Fla., 33196).
(§3) It has been shown that inhibition of the expression of the cyclin D1 gene causes arrest at the G1/S-phase of the cell cycle (Shintani et al., “Infrequent alternations of RB pathway (Rb-p16INK4A-cyclin D1) in adenoid cystic carcinoma of salivary glands,” Anticancer Res. 20:2169-75 (2000)). […] The cells were subsequently stained with propidium iodide (PI) and analyzed for DNA content by FACS cytofluorometry.

SW480 cells [1] = test: Flow cytometric analysis (FACS) of cell cycle; assay type: cell-based; conditions: 25 μM, 24 hours
Method: as §2, §3

[2] = tested on: caspase-3/7 in HCT116 cells; test: Caspase-3/7 activity assay; assay type: cell-based; conditions: 25 μM, 24 hours, compared to CCD18Co cells
Method: (§4) SW480, HCT116, and CCD18Co cells were plated at 10^5 cells per well (96-well plates) for 24 hours prior to treatment. […] 24 hours post treatment, cells were lysed and caspase activity was measured using a caspase-3/7 activity kit (Apo-One Homogeneous caspase-3/7 assay, #G77905, Promega). Relative fluorescence units (RFU) were obtained by subtracting the unit values of the blank (control, without cells) from the experimental measured values.

[3] = tested on: caspase-3/7 in SW480 cells; test: Caspase-3/7 activity assay; assay type: cell-based; conditions: 25 μM, 24 hours, compared to CCD18Co cells
Method: as §4

SW480 cells [4] = test: Soft agar colony formation assay; assay type: cell-based
Method: The soft agar colony formation assay was conducted with SW480 cells by some modification of the procedure previously described (Moody et al., “A vasoactive intestinal peptide antagonist inhibits non-small cell lung cancer growth,” Proc. Natl. Acad. Sci. USA. 90:4345-49 (1993)).
Each well (35 mm) of a 6-well plate (Nalge Nunc International, Roskide, Denmark) was coated with 1 ml of 0.8% bottom agar in DMEM medium containing 10% fetal bovine serum. After it was solidified, 1 ml of DMEM medium containing 0.4% top agar, 10% fetal bovine serum, compound doubly concentrated, and 5,000 single viable cells was added to each well. The cultures were incubated at 37° C. in humidified 5% CO2 incubator. Colonies in soft agar were monitored daily and photographed after incubation for 8 days. Colonies>60 μm in diameter were counted.

[5] = tested on: survivin promoter in wild type, CBP+/−, p300+/− 3T3 cells; test: Survivin promoter luciferase reporter in 3T3 cells; assay type: cell-based
Text: A plasmid containing luciferase under the control of survivin promoter was constructed and transfected into wild type, CBP+/−, or p300+/−3T3 cells.

[6] = tested on: survivin promoter occupancy by CBP, β-catenin, Tcf4 and acetylated histone; test: ChIP assay on SW480 cells; assay type: cell-based; conditions: 25 μM, 18 hours
survivin in SW480 cells = test: Survivin immunofluorescence microscopy; assay type: cell-based
[7] = biological target: β-catenin/CBP interaction (Homo sapiens, UniProt Q92793); conditions: Emami et al., Cancer Cell, in press; cited from earlier work
[8] = biological target: β-catenin/p300 interaction (Homo sapiens, UniProt Q09472); conditions: Emami et al., Cancer Cell, in press; cited from earlier work
β-catenin/p300 interaction, sequence (Q09472 whole entry): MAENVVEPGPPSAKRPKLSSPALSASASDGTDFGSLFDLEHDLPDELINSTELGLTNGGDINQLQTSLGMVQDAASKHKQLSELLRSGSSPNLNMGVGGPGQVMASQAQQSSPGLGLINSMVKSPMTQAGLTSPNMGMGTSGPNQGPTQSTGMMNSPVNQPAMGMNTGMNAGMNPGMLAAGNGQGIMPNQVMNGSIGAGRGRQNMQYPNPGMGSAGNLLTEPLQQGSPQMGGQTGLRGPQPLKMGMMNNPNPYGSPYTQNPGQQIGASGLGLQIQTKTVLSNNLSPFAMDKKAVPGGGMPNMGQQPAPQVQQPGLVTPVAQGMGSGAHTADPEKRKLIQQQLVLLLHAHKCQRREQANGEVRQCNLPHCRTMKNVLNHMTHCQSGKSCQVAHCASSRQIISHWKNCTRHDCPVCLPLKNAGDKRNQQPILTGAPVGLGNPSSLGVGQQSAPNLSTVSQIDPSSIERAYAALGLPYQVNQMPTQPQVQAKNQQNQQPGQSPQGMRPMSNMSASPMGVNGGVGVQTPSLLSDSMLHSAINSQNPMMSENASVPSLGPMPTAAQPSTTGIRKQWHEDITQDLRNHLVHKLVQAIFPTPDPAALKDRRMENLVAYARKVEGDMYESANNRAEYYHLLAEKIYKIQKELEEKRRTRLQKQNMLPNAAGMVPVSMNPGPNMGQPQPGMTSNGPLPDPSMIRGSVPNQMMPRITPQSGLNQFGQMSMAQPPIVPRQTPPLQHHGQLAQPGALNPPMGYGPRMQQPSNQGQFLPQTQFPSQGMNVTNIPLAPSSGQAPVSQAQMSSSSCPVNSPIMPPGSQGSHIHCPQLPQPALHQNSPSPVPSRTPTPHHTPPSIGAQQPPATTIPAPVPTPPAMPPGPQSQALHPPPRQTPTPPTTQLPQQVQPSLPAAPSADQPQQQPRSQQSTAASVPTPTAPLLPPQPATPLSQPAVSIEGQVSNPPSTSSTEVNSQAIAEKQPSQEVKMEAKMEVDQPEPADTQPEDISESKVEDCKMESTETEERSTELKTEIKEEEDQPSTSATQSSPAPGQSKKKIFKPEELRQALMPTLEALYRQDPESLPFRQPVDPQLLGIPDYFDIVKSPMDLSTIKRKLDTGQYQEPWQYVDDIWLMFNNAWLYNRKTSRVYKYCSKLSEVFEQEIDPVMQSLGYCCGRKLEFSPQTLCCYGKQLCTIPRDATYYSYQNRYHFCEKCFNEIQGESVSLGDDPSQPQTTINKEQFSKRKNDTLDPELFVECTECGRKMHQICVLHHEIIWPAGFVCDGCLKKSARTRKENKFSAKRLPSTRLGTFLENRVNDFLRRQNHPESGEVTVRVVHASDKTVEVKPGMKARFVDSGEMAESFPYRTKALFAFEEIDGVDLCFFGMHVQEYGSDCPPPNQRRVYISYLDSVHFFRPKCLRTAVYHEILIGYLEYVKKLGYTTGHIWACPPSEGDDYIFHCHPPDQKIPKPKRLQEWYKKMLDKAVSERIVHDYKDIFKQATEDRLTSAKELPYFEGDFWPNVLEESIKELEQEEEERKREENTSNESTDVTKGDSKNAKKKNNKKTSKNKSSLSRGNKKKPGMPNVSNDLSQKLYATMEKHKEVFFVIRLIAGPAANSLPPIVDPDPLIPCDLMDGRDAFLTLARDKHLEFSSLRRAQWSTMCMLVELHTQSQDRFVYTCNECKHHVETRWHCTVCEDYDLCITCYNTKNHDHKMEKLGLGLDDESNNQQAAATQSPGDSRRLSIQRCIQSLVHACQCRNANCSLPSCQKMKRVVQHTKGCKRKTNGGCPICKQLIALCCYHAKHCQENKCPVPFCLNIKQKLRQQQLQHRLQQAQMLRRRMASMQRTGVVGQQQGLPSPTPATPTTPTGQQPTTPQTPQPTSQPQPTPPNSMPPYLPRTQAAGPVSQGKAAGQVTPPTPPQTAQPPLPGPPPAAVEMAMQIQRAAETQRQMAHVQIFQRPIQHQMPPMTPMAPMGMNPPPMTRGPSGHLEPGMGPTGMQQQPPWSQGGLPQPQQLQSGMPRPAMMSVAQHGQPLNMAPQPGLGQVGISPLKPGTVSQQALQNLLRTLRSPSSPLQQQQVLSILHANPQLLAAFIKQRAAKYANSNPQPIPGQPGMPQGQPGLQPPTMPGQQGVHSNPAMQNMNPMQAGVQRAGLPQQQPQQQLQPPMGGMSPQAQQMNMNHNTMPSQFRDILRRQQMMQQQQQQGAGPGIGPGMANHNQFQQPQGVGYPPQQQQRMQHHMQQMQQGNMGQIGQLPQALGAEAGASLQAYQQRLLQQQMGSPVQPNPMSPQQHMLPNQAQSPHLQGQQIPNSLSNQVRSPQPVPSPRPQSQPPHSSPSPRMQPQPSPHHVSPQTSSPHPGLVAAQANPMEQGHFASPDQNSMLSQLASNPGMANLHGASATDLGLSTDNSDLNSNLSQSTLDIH

β-catenin/CBP interaction, sequence (Q92793 whole entry): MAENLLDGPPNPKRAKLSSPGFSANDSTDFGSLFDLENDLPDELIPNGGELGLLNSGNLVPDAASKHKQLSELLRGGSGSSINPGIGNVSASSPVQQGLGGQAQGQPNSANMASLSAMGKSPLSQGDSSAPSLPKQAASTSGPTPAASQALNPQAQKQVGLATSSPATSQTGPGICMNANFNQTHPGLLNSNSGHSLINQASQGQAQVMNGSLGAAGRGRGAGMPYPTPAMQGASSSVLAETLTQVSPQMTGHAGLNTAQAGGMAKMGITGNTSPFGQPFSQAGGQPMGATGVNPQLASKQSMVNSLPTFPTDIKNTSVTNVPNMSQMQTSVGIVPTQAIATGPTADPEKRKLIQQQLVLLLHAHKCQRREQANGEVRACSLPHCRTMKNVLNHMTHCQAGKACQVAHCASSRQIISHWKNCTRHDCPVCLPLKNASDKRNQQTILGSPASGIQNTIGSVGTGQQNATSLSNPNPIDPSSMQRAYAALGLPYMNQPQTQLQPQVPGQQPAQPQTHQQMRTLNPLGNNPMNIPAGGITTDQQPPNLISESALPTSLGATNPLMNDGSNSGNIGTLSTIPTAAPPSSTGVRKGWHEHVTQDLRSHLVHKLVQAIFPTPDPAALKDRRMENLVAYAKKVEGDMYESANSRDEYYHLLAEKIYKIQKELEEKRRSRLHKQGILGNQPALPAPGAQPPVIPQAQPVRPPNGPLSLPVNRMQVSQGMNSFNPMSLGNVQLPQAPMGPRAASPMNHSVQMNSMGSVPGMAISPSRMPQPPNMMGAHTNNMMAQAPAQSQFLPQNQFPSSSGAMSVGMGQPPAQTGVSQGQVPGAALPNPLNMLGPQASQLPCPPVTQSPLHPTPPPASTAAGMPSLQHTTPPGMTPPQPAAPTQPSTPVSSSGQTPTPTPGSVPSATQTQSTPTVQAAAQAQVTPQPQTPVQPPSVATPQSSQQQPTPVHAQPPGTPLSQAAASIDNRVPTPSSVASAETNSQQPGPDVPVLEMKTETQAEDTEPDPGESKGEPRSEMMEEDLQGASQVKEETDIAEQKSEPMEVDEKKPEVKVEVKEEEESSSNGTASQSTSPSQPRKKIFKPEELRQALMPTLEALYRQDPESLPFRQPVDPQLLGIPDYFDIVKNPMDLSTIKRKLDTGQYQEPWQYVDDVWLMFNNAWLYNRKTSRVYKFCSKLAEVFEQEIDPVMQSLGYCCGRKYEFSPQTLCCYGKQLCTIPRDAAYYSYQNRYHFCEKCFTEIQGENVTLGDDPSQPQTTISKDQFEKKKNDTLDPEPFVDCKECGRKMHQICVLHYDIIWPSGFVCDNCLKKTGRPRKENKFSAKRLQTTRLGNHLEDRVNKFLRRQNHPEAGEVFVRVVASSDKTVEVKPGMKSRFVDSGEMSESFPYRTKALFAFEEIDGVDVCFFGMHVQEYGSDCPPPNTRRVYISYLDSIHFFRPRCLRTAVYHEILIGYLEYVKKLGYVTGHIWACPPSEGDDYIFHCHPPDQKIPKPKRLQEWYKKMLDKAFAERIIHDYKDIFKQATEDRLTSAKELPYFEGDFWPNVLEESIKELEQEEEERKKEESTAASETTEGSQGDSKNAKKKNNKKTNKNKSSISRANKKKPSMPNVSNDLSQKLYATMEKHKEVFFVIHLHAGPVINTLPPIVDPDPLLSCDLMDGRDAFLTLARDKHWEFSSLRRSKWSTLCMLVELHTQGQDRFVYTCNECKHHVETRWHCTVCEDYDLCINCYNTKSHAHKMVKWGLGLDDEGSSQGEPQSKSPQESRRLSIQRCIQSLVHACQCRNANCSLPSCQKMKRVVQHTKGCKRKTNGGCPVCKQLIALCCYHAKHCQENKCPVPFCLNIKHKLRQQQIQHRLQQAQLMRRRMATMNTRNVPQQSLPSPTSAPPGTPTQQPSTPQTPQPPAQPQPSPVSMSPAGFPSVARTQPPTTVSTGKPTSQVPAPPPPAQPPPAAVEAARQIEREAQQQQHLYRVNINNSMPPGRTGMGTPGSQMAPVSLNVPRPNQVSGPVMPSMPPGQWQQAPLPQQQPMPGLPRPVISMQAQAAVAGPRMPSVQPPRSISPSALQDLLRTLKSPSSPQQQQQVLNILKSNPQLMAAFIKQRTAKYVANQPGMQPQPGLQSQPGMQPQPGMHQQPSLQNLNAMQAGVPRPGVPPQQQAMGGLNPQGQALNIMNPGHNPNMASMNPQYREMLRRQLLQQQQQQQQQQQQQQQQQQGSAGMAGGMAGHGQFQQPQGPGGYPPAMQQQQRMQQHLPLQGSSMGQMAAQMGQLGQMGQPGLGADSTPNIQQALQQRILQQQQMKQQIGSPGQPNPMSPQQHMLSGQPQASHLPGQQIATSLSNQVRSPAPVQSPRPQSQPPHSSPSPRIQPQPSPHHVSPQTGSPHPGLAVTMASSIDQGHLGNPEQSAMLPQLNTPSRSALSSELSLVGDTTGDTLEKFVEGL

| IC50 (SW480 cells [4]; Homo sapiens, 192 h, 8 days, colonies >60 μm) | Structure (SMILES) | GI50 (CACO-2) | GI50 (LOX-IMVI) | GI50 (MCF7) | GI50 (PC3) | GI50 (SK-MEL-5) | GI50 (SW620) | cell cycle distribution (PI, FACS) (HCT116 cells) | cell cycle distribution (PI, FACS) (SW480 cells [1]) | caspase-3/7 activity [2] | caspase-3/7 activity [3] | number of colonies formed in soft agar (SW480 cells [4]; 0.25-5 μM) | survivin gene expression (luciferase under survivin promoter) [5] | Wnt1 stimulation of survivin gene expression ([5]; with Wnt1) | association of CBP, β-catenin, Tcf4 and acetylated histone with the survivin promoter (ChIP) [6] | survivin protein (immunofluorescence microscopy) (survivin in SW480 cells) | β-catenin/CBP interaction [7] | β-catenin/p300 interaction [8] |
| --- | --- | --- | --- | --- | --- | --- | --- | --- | --- | --- | --- | --- | --- | --- | --- | --- | --- | --- |
| – | O=c1[nH]cc(F)c(=O)[nH]1 [Compound 5-FU, 5-fluorouracil] | 0.451 µg/mL (≈ 3.47 µM) | > 10 µg/mL | 1.75 µg/mL (≈ 13.5 µM) | > 10 µg/mL | 2.43 µg/mL (≈ 18.7 µM) | 5.57 µg/mL (≈ 42.8 µM) | – | – | – | – | – | – | – | – | – | – | – |
| 870 ± 110 nM | O=C1[C@H](Cc2ccc(O)cc2)N2C(=O)CCN(C(=O)NCc3ccccc3)[C@H]2CN1Cc1cccc2ccccc12 [Compound D] | – | – | – | – | – | – | increased accumulation at G1/S-phase of the cell cycle; also recorded: arrests cells in G1 | increased accumulation at G1/S-phase of the cell cycle; also recorded: arrests cells in G1 | selectively activates caspases in colon carcinoma cell lines | selectively activates caspases in colon carcinoma cell lines | reduces colony growth in soft agar in a dose dependent manner | reduces expression of the survivin gene; also recorded: knout-down | decreases the stimulation of the survivin gene expression by Wnt1 | decreases the association of all these proteins with the survivin promoter; also recorded: decreases the association of various proteins with the survivin promoter | little or no survivin protein was detected | selectively blocks the β-catenin/CBP interaction | not the β-catenin/p300 interaction |
